Results on 26 molecules are retold here after patent US8536160B2, “Azaheterocyclyl derivatives of androstanes and androstenes as medicaments for cardiovascular disorders” (priority 2006, dated 2013).

Counter-ions that a name gives are not always drawn. Like-named read-outs stand apart in the source and are kept apart here.

The subject of one data set is anesthetized guinea-pig. The data set is described as follows: Inotropic effect and lethal dose, slow intravenous infusion in anesthetized guinea-pig. Also on record: Maximum dose infused: unit not given here. The data set is classed as in vivo. As to conditions: for Emax / ED80 / ED (max): Cavia porcellus, iv, 1.5 h; for Emax: read-out: Emax % increase in +dP/dTmax; for ED80: read-out: ED80 (inotropic potency, dose increasing +dP/dTmax by 80%); for ED (max): read-out: EDmax (dose inducing maximum positive inotropic effect); for % decrease from Emax after 20 min from the end of the infusion: duration of the inotropic effect; for Maximum dose infused: maximum dose infused in the survived animals.

In data set [1] the target is Dog Kidney Na+, K+-ATPase (Canis lupus familiaris, UniProt P50997). Briefly: Inhibition of the enzymatic activity of purified Na+,K+-ATPase (hydrolysis of 32P-ATP). It is filed as biochemical.
The mark [2] stands for this setting: slow i.v. infusion over 90 minutes, anesthetized guinea-pig, maximum increase in contractile force.
Where [3] appears, read: slow i.v. infusion over 90 minutes, anesthetized guinea-pig.
[4] abbreviates: slow i.v. infusion over 90 minutes.
Setting [5] is: read-out: Na+, K+-ATPase Inhibition IC50.
[6] abbreviates: dog kidney enzyme, hydrolysis of 32P-ATP in presence and absence of compound, read-out: Na+, K+-ATPase Inhibition IC50.

Description for anesthetized guinea-pig: The inotropic activity is shown as maximum increase in contractile force (Emax measured as +dP/dTmax), dose inducing maximum positive inotropic effect (EDmax), inotropic potency (ED80, dose increasing +dP/dTmax by 80%); the toxicity, as the ratio between lethal dose and inotropic potency, or safety ratio, (calculated for the died animals); the maximum dose infused in the survived animals; the duration of the inotropic effect as the decrease of the effect from the EDmax measured 20 minutes after the end of the infusion.

In the case of `CC12CCC3C(CC(=C(F)F)C4CC(=NOC5CCNC5)CCC43C)C1CCC2=O` (mixture of isomers) [I-az, (E,Z) 3-[3-(R)-Pyrrolidinyl]oxyimino-6-difluoromethyleneandrostan-17-one hydrochloride], in the data set with anesthetized guinea-pig (setting [2]), the Emax turned out to be 244%. Also, in the data set on anesthetized guinea-pig (setting [3]), the ED80 worked out at 6.69 µmol/kg, the ED (max) stood at 18.4 µmol/kg and the Dead/treated was 0/3. In the data set on anesthetized guinea-pig (anesthetized guinea-pig), the “% decrease from Emax after 20 min from the end of the infusion” value (from here on “% decrease from Emax after 20 min”) came out at 20%. This molecule also returned a Maximum dose infused in the data set on anesthetized guinea-pig (setting [4]) of 25.2. For the same molecule, the IC50 (as a rule, the point on the concentration scale where inhibition reaches its midpoint) in data set [1] (Na+, K+-ATPase Inhibition IC50) was 21 nM.

For the molecule `C#CC1CC2C3CCC(=O)C3(C)CCC2C2(C)CCC(=NOC3CCNC3)CC12` (mixture of isomers) [I-bb, (E,Z) 3-[3′-(R)-Pyrrolidinyl]oxyimino-6α-ethynylandrostane-17-one hydrochloride], the Emax in the data set with anesthetized guinea-pig (setting [2]) was 147%. In addition, in the data set on anesthetized guinea-pig (setting [3]), the ED80 came out at 3.7 µmol/kg, the ED (max) was found to be 6.39 µmol/kg and the Dead/treated is reported as 0/3. Further, the “% decrease from Emax after 20 min” value with anesthetized guinea-pig (anesthetized guinea-pig) turned out to be 29%. In the data set with anesthetized guinea-pig (setting [4]), this molecule had a Maximum dose infused of 6.5. Moreover, the IC50 in data set [1] (Na+, K+-ATPase Inhibition IC50) is 110 nM.

With `C=C1C[C@H]2[C@@H]3CCC(=O)[C@@]3(C)CC[C@@H]2[C@@]2(C)CCC(=NO[C@@H]3CCNC3)C[C@]12O` (mixture of isomers) [I-bh, (E,Z) 3-[3′-(R)-Pyrrolidinyl]oxyimino-5α-hydroxy-6-methylenandrostane-17-one hydrochloride], in the data set with anesthetized guinea-pig (setting [2]), the Emax is 173%. In addition, in the data set on anesthetized guinea-pig (setting [3]), the ED80 is 1.91 µmol/kg, the ED (max) was found to be 3.8 µmol/kg and the Dead/treated is reported as 0/3. For the same molecule, the “% decrease from Emax after 20 min” value with anesthetized guinea-pig (anesthetized guinea-pig) is on record as 63%. In the data set with anesthetized guinea-pig (setting [4]), this molecule came in with a Maximum dose infused of 6.4. The molecule further displayed an IC50 in data set [1] (Na+, K+-ATPase Inhibition IC50) of 12 nM.

Take `C[C@]12CCC(=NO[C@@H]3CCNC3)C[C@@H]1[C@@H](C(N)=O)C[C@@H]1[C@@H]2CC[C@]2(C)C(=O)CC[C@@H]12.Cl` [I-at, (Z,E) 3-(3-(R)-Pyrrolidinyloxyimino)-6α-carbamoylandrostane-17-one hydrochloride]: the “% decrease from Emax after 20 min” value in the data set on anesthetized guinea-pig (anesthetized guinea-pig) is recorded as 16%. In addition, in the data set with anesthetized guinea-pig (setting [3]), the Dead/treated was 0/4; the “ED80 (inotropic potency, dose increasing +dP/dTmax by 80%)” value is 2.21 µmol/kg; the “EDmax (dose inducing maximum positive inotropic effect)” value is 8.82 µmol/kg. Also, the “Emax % increase in +dP/dTmax” value in the data set with anesthetized guinea-pig (setting [2]) stood at 109%. The Maximum dose infused with anesthetized guinea-pig (setting [4]) amounted to 25.0. Also, in data set [1] (setting [5]), the IC50 was found to be 140 nM.

`CC12CCC3C(CC(CCO)C4CC(=NOC5CCNC5)CCC43C)C1CCC2=O` (mixture of isomers) [I-bc, (E,Z) 3-[3′-(R)-Pyrrolidinyl]oxyimino-6α-(2-hydroxyethyl)androstane-17-one hydrochloride]: the Emax in the data set with anesthetized guinea-pig (setting [2]) stood at 183%. For the same molecule, in the data set on anesthetized guinea-pig (setting [3]), the ED80 was determined as 1.89 µmol/kg, the ED (max) is 5.08 µmol/kg and the Dead/treated was 0/3. Also, in the data set on anesthetized guinea-pig (anesthetized guinea-pig), the “% decrease from Emax after 20 min” value was 28%. For the same molecule, the Maximum dose infused in the data set on anesthetized guinea-pig (setting [4]) came out at 6.3. Besides, the IC50 in data set [1] (setting [6]) turned out to be 58 nM.

For the molecule `CC1CC2CC(=NOC3CCNC3)CCC2(C)C2CCC3(C)C(=O)CCC3C12` (mixture of isomers) [I-cl, (E,Z) 3-[3′-(R)-Pyrrolidinyl]oxyimino-7β-methylandrostane-17-one hydrochloride], in the data set with anesthetized guinea-pig (setting [2]), the Emax is 187%. In the data set on anesthetized guinea-pig (setting [3]), the ED80 turned out to be 3.34 µmol/kg, the ED (max) was 6.34 µmol/kg and the Dead/treated is on record as 0/3. The “% decrease from Emax after 20 min” value in the data set with anesthetized guinea-pig (anesthetized guinea-pig) came out at 7%. In addition, the Maximum dose infused in the data set with anesthetized guinea-pig (setting [4]) was determined as 6.4. In data set [1] (Na+, K+-ATPase Inhibition IC50), this molecule returned an IC50 of 150 nM.

As to `CC12CCC3C(C(CO)CC4CC(=NOC5CCNC5)CCC43C)C1CCC2=O` (mixture of isomers) [I-ch, (E,Z) 3-[3′-(R)-Pyrrolidinyl]oxyimino-7α-hydroxymethylandrostane-17-one hydrochloride], in data set [1] (setting [6]), the IC50 was found to be 160 nM.

Take `CC12CCC3C(C(=O)CC4CC(=NOC5CCNC5)CCC43C)C1CCC2=O` (single isomer, unassigned) [I-cb]: the midpoint of inhibition in data set [1] (Na+, K+-ATPase Inhibition IC50), the IC50, lay at 89 nM.

In the case of `C[C@]12CC/C(=N\OC3CCNC3)CC1C(=O)C[C@@H]1[C@@H]2CC[C@]2(C)C(=O)CC[C@@H]12` (mixture of isomers) [I-ac, (E) 3-[3-(RS)-Pyrrolidinyl]oxyiminoandrostane-6,17-dione hydrochloride], the IC50 in data set [1] (Na+, K+-ATPase Inhibition IC50) came out at 110 nM.

As for `CON=C1CC2C3CCC(=O)C3(C)CCC2C2(C)CCC(=NOC3CCN(C)C3)CC12O` (single isomer, unassigned) [I-ca], the IC50 in data set [1] (setting [6]) amounted to 6000 nM.

For `C[C@]12CC/C(=N\O[C@H]3CCNC3)CC1[C@@H](CO)C(=O)[C@@H]1[C@@H]2CC[C@]2(C)C(=O)CC[C@@H]12` (stereo partly drawn) [I-dj, (E)-3-[3-(S)-Pyrrolidinyl)oxyimino]-6α-hydroxymethylandrostane-7,17-dione fumarate], in data set [1] (Na+, K+-ATPase Inhibition IC50, dog kidney enzyme, hydrolysis of 32P-ATP in presence and absence of compound), the IC50 was 36 nM.

In the case of “3β-(2-(R,S)-piperazinylcarbonyloxy)androstane-6,7-dione dihydrochloride [I-da]”, the IC50 in data set [1] (setting [5]) was found to be 68000 nM.

The molecule `CC12CCC3C(C1CCC2=O)C1(CC1)CC1CC(=NOC2CCNC2)CCC13C` (mixture of isomers) [I-co, (Z,E) 3-(3′-(R)-Pyrrolidinyloxyimino)-7-(spirocyclopropane)androstane-17-one hydrochloride] gave an IC50 in data set [1] (Na+, K+-ATPase Inhibition IC50) of 24 nM.

`C=C1C[C@H]2[C@@H]3CCC(=O)[C@@]3(C)CC[C@@H]2[C@@]2(C)CC/C(=N\O[C@H]3CCN(C)C3)C[C@]12O` [I-bo, (E) 3-[3′-(S)-(1-Methyl)pyrrolidinyl]oxyimino)-5α-hydroxy-6-methyleneandrostane-17-one fumarate] displayed an IC50 in data set [1] (Na+, K+-ATPase Inhibition IC50) of 21000 nM.

`COC(=O)C1CC2C3CCC(=O)C3(C)CCC2C2(C)CCC(=NOC3CCNC3)CC12` (mixture of isomers) [I-au, (Z,E) 3-(3-(R)-Pyrrolidinyloxyimino)-6α-methoxycarbonylandrostane-17-one hydrochloride]: in the data set on anesthetized guinea-pig (setting [2]), the Emax was found to be 164%. In addition, in the data set on anesthetized guinea-pig (setting [3]), the ED80 is 11 µmol/kg, the ED (max) turned out to be 23.3 µmol/kg and the Dead/treated is given as 0/4. For the same molecule, the “% decrease from Emax after 20 min” value with anesthetized guinea-pig (anesthetized guinea-pig) worked out at 58%. In the data set with anesthetized guinea-pig (setting [4]), this molecule displayed a Maximum dose infused of 50.3. Further, in data set [1] (setting [6]), the IC50 was determined as 160 nM.

Turning to `COCC1CC2CC(=NOC3CCNC3)CCC2(C)C2CCC3(C)C(=O)CCC3C12` (mixture of isomers) [I-dm, (E,Z) 3-[3-(R)-Pyrrolidinyl]oxyimino-7α-methoxymethylandrostane-17-one hydrochloride], the concentration for half-maximal inhibition (IC50) in data set [1] (setting [6]) came out at 8100 nM.

On to `CC12CCC3C(CC(=O)C4CC(=NOC5CCNC5)CCC43C)C1CCC2=O` (mixture of isomers) [I-ae, (E,Z) 3-[3-(R)-Pyrrolidinyl]oxyiminoandrostane-6,17-dione hydrochloride], for which the Emax with anesthetized guinea-pig (setting [2]) came to 147%. Besides, in the data set on anesthetized guinea-pig (setting [3]), the ED80 came to 2.28 µmol/kg, the ED (max) worked out at 4.26 µmol/kg and the Dead/treated is listed as 0/3. Besides, the “% decrease from Emax after 20 min” value with anesthetized guinea-pig (anesthetized guinea-pig) is 74%. Also, the Maximum dose infused with anesthetized guinea-pig (setting [4]) is recorded as 6.4. The IC50 in data set [1] (Na+, K+-ATPase Inhibition IC50) came to 26 nM.

`CN1CC[C@H](O/N=C2\CC[C@@]3(C)C(C2)[C@@H](CO)C(=O)[C@@H]2[C@@H]3CC[C@]3(C)C(=O)CC[C@@H]23)C1` (stereo partly drawn) [I-cu, (E,Z) 3-[3′-(S)-(1-Methyl)-pyrrolidinyl]oxyimino-6α-hydroxymethylandrostane-7,17-dione fumarate]: in data set [1] (setting [5]), the IC50 amounted to 2600 nM.

`CC12CCC3C(CC(O)C4CC(=NOC5CCNC5)CCC43C)C1CCC2=O` (single isomer, unassigned) [I-dp, hydrochloride]: the Emax in the data set on anesthetized guinea-pig (setting [2]) is 358%. Moreover, in the data set with anesthetized guinea-pig (setting [3]), the ED80 worked out at 3.92 µmol/kg, the ED (max) worked out at 43.6 µmol/kg and the Dead/treated was 2/2. In the data set with anesthetized guinea-pig (calculated for the died animals, anesthetized guinea-pig), the “Lethal dose/ED80 (safety ratio)” value is 49. In the data set with anesthetized guinea-pig (setting [4]), the Maximum dose infused is recorded as 148. Further, the IC50 in data set [1] (Na+, K+-ATPase Inhibition IC50) is 1200 nM.

In data set [1] (Na+, K+-ATPase Inhibition IC50), `CC12CCC3C(C(=O)CC4CC(=NOC5CCNC5)CCC43C)C1CCC2=O` (single isomer, unassigned) [I-cc] yielded an IC50 of 570 nM.

In the case of `C=C1C[C@H]2[C@@H]3CCC(=O)[C@@]3(C)CC[C@@H]2[C@@]2(C)CC/C(=N/O[C@@H]3CCN(C)C3)C[C@]12O` [I-bl, (Z) 3-[3′-(R)-(1-Methyl)pyrrolidinyl]oxyimino-5α-hydroxy-6-methyleneandrostane-17-one fumarate], half-maximal inhibition in data set [1] (Na+, K+-ATPase Inhibition IC50) (IC50) was put at 92000 nM.

On to `CC12CCC3C(CC(=O)C4CC(=NOCC5CCCN5)CCC43C)C1CCC2=O` (mixture of isomers) [I-ah, hydrochloride], for which the IC50 in data set [1] (Na+, K+-ATPase Inhibition IC50) was 23000 nM.

Turning to `C=CCON=C1CC2CC(=NOC3CCNC3)CCC2(C)C2CCC3(C)C(=O)CCC3C12` (mixture of isomers) [I-cf, (E,Z) 3-[3′-(R)-Pyrrolidinyl]oxyimino-7-(E)-allyloxyiminoandrostane-17-one fumarate], the IC50 in data set [1] (setting [6]) was found to be 4000 nM.

In the case of `CC12CCC3C(CC(O[N+](=O)[O-])C4CC(=NOC5CCNC5)CCC43C)C1CCC2=O` (mixture of isomers) [I-ap, (E,Z) 3-[3-(R)-Pyrrolidinyl]oxyimino-17-oxoandrostane-6α-yl nitrate hydrochloride], the IC50 in data set [1] (setting [6]) worked out at 380 nM.

Consider `C[C@]12CC[C@H](OC(=O)C3CNC3)CC1C(=O)C[C@@H]1[C@@H]2CC[C@]2(C)C(=O)CC[C@@H]12` (stereo partly drawn) [I-cx, 3β-(3-Azetidincarbonyloxy)androstane-6,17-dione hydrochloride], for which half-maximal inhibition in data set [1] (Na+, K+-ATPase Inhibition IC50) (IC50) was put at 4200 nM.

Turning to `C[C@]12CC[C@@H](SC3CCNC3)CC1C(=O)C[C@@H]1[C@@H]2CC[C@]2(C)C(=O)CC[C@@H]12` (mixture of isomers) [I-dc, 3α-[3-(RS)-Pyrrolidinylthio]androstane-6,17-dione fumarate], the IC50 in data set [1] (setting [5]) turned out to be 95000 nM.
